In US8071645B2, “Systems and methods for treating human inflammatory and proliferative diseases and wounds, with fatty acid metabolism inhibitors and/or glycolytic inhibitors” (The Regents of the University of Colorado, priority 2003, dated 2011):

Tests used:
Format in all cases: cell-based
[1] = system: cell surface Fas (CD95) on B16F1 melanoma cells; assay: cell surface Fas (CD95) expression on B16F1 melanoma cells; settings: 48 hours
Description: (§1) Cell Surface Staining. Non-permeabilized cells were stained with antibodies to the cell surface receptors Fas (CD95) (Pharmingen) or with antibodies to uncoupling proteins (anti-UCP2 antibody) (Alpha Diagnostic International). Antibodies for both the isotype control and actual stain were added to the cell suspension, mixed, and then placed on ice for and incubation of 25 minutes in the dark. Subsequently the cells were centrifuged at 300×g for 5 minutes and the supernatant removed. The cells were washed one time with 100 μL of PBS/2.5% FBS and then transferred into flow cytometric tubes containing 500 μL of PBS/2.5% FBS for analysis.
B16F1 melanoma cells were cultured at a concentration of 0.5 to 1 million cells per ml. Cells were harvested and analyzed by flow cytometry. Dot plots are shown in FIG. 15 as functions of live versus dead cells. Each dot on the dot plot represents one cell. Five thousand cells were assessed for forward scatter (FS), as a function of cell size, versus side scatter (SS), as a function of cellular granularity. […]
Referring to FIGS. 17 and 18, B16F1 melanoma cells of Example 12 were untreated or treated with etomoxir at the indicated concentrations for 48 hours. Cells were harvested, stained with fluorochrome conjugated anti-Fas antibody (Pharmingen) and analyzed by flow cytometry.

B16F1 melanoma cells = assay: DCFDA staining (reactive oxygen species) of B16F1 melanoma cells; settings: 48 hours, FIG. 19
Description: Metabolic Activity Assay. Cells were prepared as previously described. The specific metabolic dye was added and mixed into the cell suspension. This plate was then placed into the 37° incubator for a 20-minute incubation. After incubation, the cells were centrifuged at 300×g for 5 minutes, and the supernatant was removed. The cells were then washed once with PBS/2.5% FBS and transferred into flow cytometric tubes containing 500 μL of PBS/2.5% FBS for analysis
5-(and -6)-Chloromethyl-2′,7′-dichlorodihydrofluorescein diacetate (CMH2DCFDA) (Molecular Probes). One vial of DCFda provides 10 tests and contains 50 μg. This is unstable and can't be stored. Therefore, each vial was opened and 43 μL of DMSO was added. […]
Geometric Mean Fluorescence. […] Once the stained sample was plotted against the control (isotype or unstained), geometric mean fluorescence values were obtained for both histogram peaks. The stained control sample value was subtracted from sample to identify the actual fluorescence of the stained sample over that of the control.
B16F1 melanoma cells of Example 12 were untreated or treated with etomoxir at the indicated concentrations for 48 hours. Cells were harvested, stained with DCFDA as described in Materials and Methods, and analyzed by flow cytometry. The value of DCFDA was then calculated as described in Materials and Methods.

[2] = system: cell surface UCP2 on A-204 human rhabdomyosarcoma cells; assay: cell surface UCP2 expression on A-204 cells by flow cytometry; settings: 24, 48, & 72 hours, FIG. 26
Description: as §1
A204 human rhabdomyosarcoma cells were cultured at a concentration of 0.5 to 1 million cells per ml. Cells were untreated or treated with etomoxir at concentrations indicated in FIG. 24 for 24, 48, & 72 hours. Cells were harvested and analyzed by flow cytometry. Dot plots are shown in FIG. 24 as functions of live versus dead cells. […] Five thousand cells were assessed for forward scatter (FS), as a function of cell size, versus side scatter (SS), as a function of cellular granularity. […]
Cells were untreated or treated with etomoxir at the concentration indicated in FIG. 26 at the indicated concentration for 24, 48, & 72 hours. Cells were harvested, stained with fluorochrome conjugated with anti-UCP2 antibody and analyzed by flow cytometry.

[3] = system: RD cells (rhabdomyosarcoma cells); assay: percent death of RD cells by flow cytometry
Description: Dot plots as a function of live versus dead cells. The cells were cultured at a concentration of 0.5 to 1 million cells per ml. Cells were untreated or treated with etomoxir or 2-deoxy-D-glucose at a concentration of 2.5 mM at the indicated concentrations for either 24 or 48 hours. In additional experiments, under each of these culture conditions, the cells were cultured for 24 hours at which time point, polyclonal anti-UCP-2 was added at a 1:1000 dilution of stock provided by Alpha Diagnostics, San Antonio, Tex. Cells were harvested and analyzed by flow cytometry. Each dot on the dot plots of FIGS. 1, 3, 5, 7, 9, and 11 represents one cell. Five thousand cells were assessed for forward scatter (FS), as a function of cell size, versus side scatter (SS), as a function of cellular granularity. The upper ellipse represents live cells by these criterion and the lower ellipse in each dot plot represents the dead cells.
Statistical Analysis, Percents, and Geometric Mean Values Percents. Gating is a tool provided by Cell Quest software and allows for the analysis of a certain population of cells. Gating around both the live and dead cell populations gave a percent of the cell numbers that was in each population. After the gates were drawn, a percent value of dead cells was calculated by taking the number of dead cells divided by the number of total cells and multiplying by one hundred.
Referring to FIGS. 29 and 30, RD cells (rhabdomyosarcoma cells—not drug resistant), cultured as described above under “Materials and Methods” were untreated or treated with etomoxir, with 2-deoxy-D-glucose, or with a combination of etomoxir and 2-deoxy-D-glucose, at concentrations indicated in FIG. 29 for 24 hours. Cells were harvested and analyzed by flow cytometry. […] The percent of cell deaths for RD cells after 24 hours was: (a) 31% when untreated, (b) 57% when treated with etomoxir alone, (c) 46% when treated with 2-deoxy-D-glucose alone, and (d) 66% when treated with the combination of etomoxir and 2-deoxy-D-glucose.
Referring to FIGS. 33 and 34, RD cells, cultured as described in Example 22, were untreated or treated with etomoxir, with 2-deoxy-D-glucose, or with a combination of etomoxir and 2-deoxy-D-glucose, at concentrations indicated in FIG. 33 for 48 hours. Cells were harvested and analyzed by flow cytometry. […] The percent of cell deaths for RD cells after 48 hours was: (a) 36% when untreated, (b) 64% when treated with etomoxir alone, (c) 63% when treated with 2-deoxy-D-glucose alone, and (d) 68% when treated with the combination of etomoxir and 2-deoxy-D-glucose.

CCOC(=O)C1(CCCCCCOc2ccc(Cl)cc2)CO1 (stereo not drawn) [etomoxir, 2-(6-(4-chlorophenoxy)-hexyl)-oxirane-2-carboxylic acid ethyl ester]
cell surface Fas expression, live cell population ([1]; FIG. 17): dose dependent increase | cell surface Fas expression, dead cell population ([1]; FIG. 18): dose dependent increase | reactive oxygen species as measured by DCFDA (B16F1 melanoma cells): dose dependent increase | cell surface UCP2 expression in the live cells [2]: time dependent “fold” increases | percent of cell deaths ([3]; 24 hours, concentrations as in FIG. 29): 57% | percent of cell deaths ([3]; 48 hours, concentrations as in FIG. 33): 64%
